We go through three molecules from patent EP1206494B1, “COMPUTATIONAL DESIGN METHODS FOR MAKING MOLECULAR MIMETICS” (SYNT:EM S.A., priority 1999, dated 2001).

Assay [1] deals with HIV-1-LAI strain. The experiment in a line: Antiviral activity assay on PBMCs infected by HIV isolates (reverse transcriptase in day 7 supernatant). It counts as cell-based. As to conditions: Human immunodeficiency virus 1, PBMC. Here is the method:
Mononucleated cells were isolated from peripheral blood of a healthy donor (and seronegative for HIV and hepatitis viruses) with a gradient of Ficoll-Hypaque. The PBMCs were activated by […] of phytohemaglutinine-P (PHA-P, Difco Laboratories, Detroit, USA) during three days, then cultured at 200,000 cells per well in a 96-well plate, in a culture medium A, complemented by 20 IU/ml of recombinant interleukin-2 (rHuIL-2, Roche Products, Mannheim, Germany). Medium A consists of: RPMI cell culture (RPMI 1640, Roche Products), 10% Fetal Calf Serum (FCS, Roche Products complement inactivated by heating at 56°C for 45mn, 2mM L-glutamine (Roche Products) and a solution of three antibiotics (penicillin, streptomycin and neomycin (PSN, LifeTechnologies, Grand Island, JSA). During culture, cells were maintained at +37°C, in a saturated humid atmosphere, under 5% CO2.
PBMCs were infected over 1 hour at 37°C with a 10 000 tissue culture infectious dose 50% (TCID50) of the lymphocytary tropism reference strain HIV-1-LAI. At the end of the incubation, cells were washed twice with medium A. The HIV-1 strain was exclusively amplified, in the Neurovirology Service, with Umbilical Blood Mononucleated Cells (UBMC) activated with PHA-P, and the TCID50 was calculated using the Kärber formula.
The mimetic and the scrambled peptide were dissolved in ultrapure sterile water. Five concentrations were tested (50 µM, 10 µM, 5 µM, 1 µM and 0.5 µM). Antibodies ST40 and 9E8 (provided by the CNRS UMR 9921, Montpellier) were tested at the following concentrations: 100 µg/ml, 10 µg/ml, 1 µg/ml, 100 ng/ml and 10 ng/ml.
(§1) The activities of these compounds were compared to the Q4120 reference antibody and to AZT. […] The anti-HIV activity of AZT was measured at the following concentrations: 10 µM, 1 µM, 100 nM, 10 nM and 1 nM. […]
(§2) All experiments were performed in triplicate. […] The viral replication was measured by dosing the inverse transcriptase activation in the supernatant of the 7th day culture, using a dosing kit Retrosys(r), supplied by Innovagen (Lund, Sweden).

In the next assay the target is T1, human recombinant CD4 (Homo sapiens, UniProt P01730).
T1 construct: purchased RepliGen (USA)
The experiment in a line: BIAcore surface plasmon resonance kinetic analysis: binding of soluble CD4 to immobilized mimetic. Here is the method:
The human recombinant CD4 used for the kinetic analysis and the biological assays was obtained from RepliGen (USA).
The kinetic parameters, association rate constant (ka) and dissociation rate constant (kd), were determined by surface plasmon resonance (SPR) analysis using BIACORE 2000 (Biacore AB, Uppsala, Sweden). ka and kd were determined using BIAevaluation 3.0 software (BIAcore AB). The apparent equilibrium constant KD is the ratio kd/ka. All experiments were carried out at 25°C.
The free SH group of the lysine side chain extended by a 3-mercaptopropionic acid linker of the mimetic was used to chemically immobilize molecules on a B1 sensor chip (BIAcore AB) following a standard PDEA/EDC/NHS procedure from BIAcore.
The binding kinetic of CD4 to immobilized mimetic was determined by injecting CD4 (1-20 µg/ml, 16-330 nM) in HBS buffer (running buffer) at a flow rate of 30 µl/min.

Assay [2] relates to HIV-1-LAI strain. It counts as cell-based. The settings on record: dose independent, non-linear behavior. The method, then:
Mononucleated cells were isolated from peripheral blood of a healthy donor (and seronegative for HIV and hepatitis viruses) with a gradient of Ficoll-Hypaque. The PBMCs were activated by […] of phytohemaglutinine-P (PHA-P, Difco Laboratories, Detroit, USA) during three days, then cultured at 200,000 cells per well in a 96-well plate, in a culture medium A, complemented by 20 IU/ml of recombinant interleukin-2 (rHuIL-2, Roche Products, Mannheim, Germany). […]
PBMCs were infected over 1 hour at 37°C with a 10 000 tissue culture infectious dose 50% (TCID50) of the lymphocytary tropism reference strain HIV-1-LAI. At the end of the incubation, cells were washed twice with medium A. The HIV-1 strain was exclusively amplified, in the Neurovirology Service, with Umbilical Blood Mononucleated Cells (UBMC) activated with PHA-P, and the TCID50 was calculated using the Kärber formula. […]
as §1, §2

Where a SMILES comes first, the peptide text is derived from it. Bridges are numbered along the chain shown (N, C = ends). Mpa = O=C(O)CCS

For `Cc1cn([C@H]2C[C@H](N=[N+]=[N-])[C@@H](CO)O2)c(=O)[nH]c1=O` [AZT], in the assay on HIV-1-LAI strain [1], the inhibition at 0.001 µM was found to be 66 ± 5%, the inhibition at 0.01 µM came to 74 ± 13% and 0.1 µM produced 100% inhibition.

On to `CC(=O)N[C@@H](C)C(=O)N[C@@H](CCCNC(=N)N)C(=O)N[C@@H](CCCNC(=N)N)C(=O)N1CCC[C@H]1C(=O)N[C@H]1CCCCNC(=O)[C@@H]2CCCN2C(=O)CNC(=O)[C@H](Cc2ccc(O)cc2)NC(=O)[C@H](C)NC(=O)[C@H](C(C)C)NC(=O)[C@H](Cc2c[nH]c3ccccc23)NC(=O)[C@@H]2CCCN2C(=O)CNC(=O)[C@H](Cc2c[nH]c3ccccc23)NC(=O)[C@H](C(C)C)NC(=O)[C@H](CC(N)=O)NC(=O)[C@@H]2CCCN2C(=O)[C@H](Cc2c[nH]cn2)NC(=O)[C@H](CC(N)=O)NC(=O)[C@H](CCCCNC(=O)CCS)NC(=O)[C@H](C(C)C)NC(=O)[C@H](Cc2ccc(O)cc2)NC(=O)[C@@H]2CCCN2C(=O)[C@H](C)NC(=O)[C@H](CCCNC(=N)N)NC(=O)[C@H](Cc2ccc(O)cc2)NC(=O)[C@H](Cc2ccccc2)NC1=O` [Mk3Tyr-long1SH] (Ac-ARRPKFYRAPYVK(Mpa)NHPNVWGPWVAYGP; lactam 5-C), for which, on human recombinant CD4 (immobilized mimetic and soluble CD4, 25°C, read-out: ka), the kon came out at 82600 M⁻¹ s⁻¹. Besides, the Kd at human recombinant CD4 (ratio kd/ka, read-out: calculated KD) is 3.2 nM.

With `CC[C@H](C)[C@H](NC(C)=O)C(=O)N[C@@H](Cc1c[nH]c2ccccc12)C(=O)N[C@H](C(=O)N[C@H]1CCCCNC(=O)CNC(=O)[C@H](Cc2c[nH]c3ccccc23)NC(=O)[C@H](C(C)C)NC(=O)[C@@H]2CCCN2C(=O)[C@H](CCCNC(=N)N)NC(=O)[C@H](C)NC(=O)[C@H](CC(N)=O)NC(=O)[C@@H]2CCCN2C(=O)[C@H](C)NC(=O)[C@H](CCCNC(=N)N)NC(=O)[C@@H]2CCCN2C(=O)CNC(=O)[C@H](Cc2ccc(O)cc2)NC(=O)[C@H](Cc2ccccc2)NC(=O)[C@H](CS)NC(=O)[C@H](CCCNC(=N)N)NC(=O)[C@H](CC(N)=O)NC(=O)[C@H](Cc2ccc(O)cc2)NC(=O)[C@@H]2CCCN2C(=O)[C@H](C(C)C)NC(=O)[C@H](Cc2c[nH]cn2)NC(=O)[C@@H]2CCCN2C(=O)[C@H](C)NC1=O)C(C)C` [scrambled peptide] (Ac-IWVKAPHVPYNRCFYGPRAPNARPVWG; lactam 4-C), in the assay with HIV-1-LAI strain [2], the “anti-retroviral activity (in words)” value is “within the background noise”.
